The values below come from patent US10626094B2 (La Jolla Institute of Allergy & Immunology, priority 2014, dated 2020).

Molecules are shown by their SMILES. pIC50: −log10 of the molar value.

LMPTP-A (Low Molecular Weight Protein Tyrosine Phosphatase-A) enzyme, sequence (P24666 whole entry): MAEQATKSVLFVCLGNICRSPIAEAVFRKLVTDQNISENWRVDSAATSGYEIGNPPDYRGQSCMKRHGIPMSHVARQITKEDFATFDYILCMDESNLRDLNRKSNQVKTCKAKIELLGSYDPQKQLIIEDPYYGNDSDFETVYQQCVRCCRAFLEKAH

For one test, the target named is LMPTP-A (Low Molecular Weight Protein Tyrosine Phosphatase-A) enzyme (Homo sapiens (Human), UniProt P24666). The experiment in a line: LMPTP primary screening / LMPTP (OMFP) enzyme inhibition assay, fluorescence intensity. Type of test: biochemical. The following applies: IC50 (nM), LMPTP-A, OMFP substrate, method of Example 2. As for the experimental part:
This assay attempts to identify inhibitors of the LMPTP-A (Low Molecular Weight Protein Tyrosine Phosphatase-A) enzyme. It is run in 1536-well format and is measured via fluorescence intensity.
A listing of materials is provided: • Item, source, catalog no. • LMPTP-A Enzyme Stock Solution (4.22 mg/ml or 206.8 μM), SBMRI Protein Facility, • N/A • OMFP, Sigma, M2629-100MG • Bis-Tris pH 6.0, Fisher Sci, BP301-100 • Triton-X 100, Sigma, T9284 • DTT, Sigma, D9779 • Mol. Grade Water, Mediatech, Inc., 46-000-CM • 1536-well black High base opaque bottom plate, Nexus Biosystems, 00019120
Final assay conditions are: • 0.625 nM LMPTP-A Enzyme • 400 μM OMFP • 50 mM Bis-Tris pH 6.0 • 1 mM DTT • 0.01% Triton-X 100 • 20 μM test compound • 3% DMSO (2% from substrate and 1% from compounds) • 6 μL reaction volume • 50 minutes incubation at room temp
Assay Procedure • 1. Prepare Reagents as described in section F. Recipe. • 2. Using LabCyte Echo, transfer 60 nL from 2 mM test compound source plate into assay plate Col. 5-48 (final concentration of test compounds is 20 μM). 60 nL of DMSO should be transferred to col. 1-4 for positive and negative control wells. • 3. Spin plates at 1000 rpm for 1 minute in centrifuge. • 4. […] Using the Bioraptr, add 3 μL/well of enzyme solution to col. 3-48. • 6. Using the Bioraptr, add 3 μL/well of substrate solution to col. 1-48. • 7. Spin plates at 1000 rpm for 1 minute in centrifuge. • 8. Incubate plates in the dark at room temperature for 50 minutes. • 9. Read plates on PerkinElmer Viewlux using a FI protocol.
The compound `COc1ccc(-c2cc(Nc3ccccn3)c3ccccc3n2)cc1` [Compound G63, [2-(4-Methoxy-phenyl)-quinolin-4-yl]-pyridin-2-yl-amine] gave an IC50 of 801 to 5000 nM.

The same test, now with this note: LMPTP-A, OMFP substrate, method of Example 2; read-out: IC50.
On to `N#Cc1cccc(Nc2cc(-c3ccccc3C(F)(F)F)nc3ccccc23)c1` [Compound G32, 3-[2-(2-Trifluoromethyl-phenyl)-quinolin-4-ylamino]-benzonitrile], for which the pIC50 was 5.30 to 6.10. The same measure, in the same setting: the value for `FC(F)(F)c1ccccc1-c1cc(Nc2ccccc2)c2ccccc2n1` [Compound G33, Phenyl-[2-(2-trifluoromethyl-phenyl)-quinolin-4-yl]-amine] was less than 5.30; that for `Fc1ccc(Nc2cc(-c3ccccc3C(F)(F)F)nc3ccccc23)cc1` [Compound G34, (4-Fluoro-phenyl)-[2-(2-trifluoromethyl-phenyl)-quinolin-4-yl]-amine] was 5.30 to 6.10; that for `COc1ccc(-c2cc(Nc3ccccc3)c3ccccc3n2)cc1` [Compound G35, [2-(4-Methoxy-phenyl)-quinolin-4-yl]-phenyl-amine] was 5.30 to 6.10. The same measure, in the same setting: the same measure for `COc1ccc(-c2cc(Nc3ccccc3C(F)(F)F)c3ccccc3n2)cc1` [Compound G36, [2-(4-Methoxy-phenyl)-quinolin-4-yl]-(2-trifluoromethyl-phenyl)-amine]: less than 5.30.

Consider `COc1ccc(-c2cc(Nc3cccc(C(F)(F)F)c3)c3ccccc3n2)cc1` [Compound G37, [2-(4-Methoxy-phenyl)-quinolin-4-yl]-(3-trifluoromethyl-phenyl)-amine], for which the negative logarithm of the IC50 (pIC50) was less than 5.30.

For the compound `COc1ccc(-c2cc(Nc3cccc(C#N)c3)c3ccccc3n2)cc1` [Compound G38, 3-[2-(4-Methoxy-phenyl)-quinolin-4-ylamino]-benzonitrile], the pIC50 was 6.10 to 6.70. The same measure, in the same setting: the value for `COc1ccc(-c2cc(Nc3ccc(F)cc3)c3ccccc3n2)cc1` [Compound G39, (4-fluorophenyl)[2-(4-methoxyphenyl)(4-quinolyl)]amine] was 5.30 to 6.10. Still for that read-out and setting: the same measure for `COc1ccc(-c2cc(Nc3ccc(Cl)cc3)c3ccccc3n2)cc1` [Compound G40, (4-chlorophenyl)[2-(4-methoxyphenyl)(4-quinolyl)]amine]: 5.30 to 6.10; for `COc1ccc(-c2cc(Nc3ccc(Br)cc3)c3ccccc3n2)cc1` [Compound G41, (4-bromophenyl)[2-(4-methoxyphenyl)(4-quinolyl)]amine]: 5.30 to 6.10.

Regarding `COc1ccc(-c2cc(Nc3ccc(C(F)(F)F)cc3)c3ccccc3n2)cc1` [Compound G42, [2-(4-methoxyphenyl)(4-quinolyl)][4-(trifluoromethyl)phenyl]amine], the pIC50 was 5.30 to 6.10. Still for that read-out and setting: the same measure for `COc1ccc(-c2cc(Nc3ccc(C)cc3)c3ccccc3n2)cc1` [Compound G43, [2-(4-methoxyphenyl)(4-quinolyl)](4-methylphenyl)amine]: 5.30 to 6.10. Turning to `COc1ccc(-c2cc(Nc3ccc(OC(C)C)cc3)c3ccccc3n2)cc1` [Compound G44, [2-(4-methoxyphenyl)(4-quinolyl)][4-(methylethoxy)phenyl]amine], the pIC50 was 5.30 to 6.10.

With `CCOC(=O)c1ccc(Nc2cc(-c3ccc(OC)cc3)nc3ccccc23)cc1` [Compound G45, ethyl 4-{[2-(4-methoxyphenyl)-4-quinolyl]amino}benzoate], the pIC50 is less than 5.30.

As to `COc1ccc(-c2cc(Nc3ccn(C)n3)c3ccccc3n2)cc1` [Compound G46], the negative logarithm of the IC50 (pIC50) was 5.30 to 6.10. The same measure, in the same setting: the same measure for `COc1ccc(-c2cc(Nc3ccc(C#N)cc3)c3ccccc3n2)cc1` [Compound G47, 4-{[2-(4-methoxyphenyl)-4-quinolyl]amino}benzenecarbonitrile]: 6.10 to 6.70.

Take `COc1ccc(-c2cc(Nc3ccc(OC)nc3)c3ccccc3n2)cc1` [Compound G48, (6-methoxy(3-pyridyl))[2-(4-methoxyphenyl)(4-quinolyl)]amine]: the pIC50 was 6.10 to 6.70. Same read-out and setting: the same measure for `COc1ccc(-c2cc(Nc3ccc(F)c(Cl)c3)c3ccccc3n2)cc1` [Compound G49, (3-chloro-4-fluorophenyl)[2-(4-methoxyphenyl)(4-quinolyl)]amine]: 5.30 to 6.10; for `COc1ccc(-c2cc(Nc3cccc(CN4CCCC4)c3)c3ccccc3n2)cc1` [Compound G50, [2-(4-methoxyphenyl)(4-quinolyl)][3-(pyrrolidinylmethyl)phenyl]amine]: 6.10 to 6.70.

For `COc1ccc(-c2cc(Nc3ccc(CN4CCOCC4)cc3)c3ccccc3n2)cc1` [Compound G52, [2-(4-methoxyphenyl)(4-quinolyl)][4-(morpholin-4-ylmethyl)phenyl]amine], the pIC50 was 5.30 to 6.10. Same read-out and setting: the value for `COc1ccc(-c2cc(Nc3cccc(CN4CCCCC4)c3)c3ccccc3n2)cc1` [Compound G54, [2-(4-methoxyphenyl)(4-quinolyl)][3-(piperidylmethyl)phenyl]amine] was 5.30 to 6.10; that for `COc1ccc(-c2cc(Nc3cccc(CN4CCOCC4)c3)c3ccccc3n2)cc1` [Compound G55, [2-(4-methoxyphenyl)(4-quinolyl)][3-(morpholin-4-ylmethyl)phenyl]amine] was 6.10 to 6.70; that for `COc1ccc(-c2cc(Nc3cccc(CN4CCSCC4)c3)c3ccccc3n2)cc1` [Compound G56, [2-(4-methoxyphenyl)(4-quinolyl)][3-(1,4-thiazaperhydroin-4-ylmethyl)phenyl]amine] was 6.10 to 6.70. The same measure, in the same setting: the value for `COc1ccc(-c2cc(Nc3cccc(CN4CCCN(C)CC4)c3)c3ccccc3n2)cc1` [Compound G57, [2-(4-methoxyphenyl)(4-quinolyl)]{3-[(4-methyl(1,4-diazaperhydroepinyl))methyl]phenyl}amine] was 6.10 to 6.70; that for `COc1ccc(-c2cc(Nc3cccc(CN(C)C)c3)c3ccccc3n2)cc1` [Compound G58, [(3-{[2-(4-methoxyphenyl)(4-quinolyl)]amino}phenyl)methyl]dimethylamine] was 6.10 to 6.70; that for `COc1ccc(-c2cc(Nc3cccc(CN4CCNCC4)c3)c3ccccc3n2)cc1` [Compound G59, [2-(4-methoxyphenyl)(4-quinolyl)][3-(piperazinylmethyl)phenyl]amine] was 5.30 to 6.10. As for `COc1ccc(-c2cc(Nc3cccc(CN4CCN(C)CC4)c3)c3ccccc3n2)cc1` [Compound G60, [2-(4-methoxyphenyl)(4-quinolyl)]{3-[(4-methylpiperazinyl)methyl]phenyl}amine], the negative logarithm of the IC50 (pIC50) is 5.30 to 6.10. The same measure, in the same setting: the value for `CCN(CC)Cc1cccc(Nc2cc(-c3ccc(OC)cc3)nc3ccccc23)c1` [Compound G61, (3-Diethylaminomethyl-phenyl)-[2-(4-methoxy-phenyl)-quinolin-4-yl]-amine] was 5.30 to 6.10; that for `COc1ccc(-c2cc(Nc3cccc(CN4CCS(=O)(=O)CC4)c3)c3ccccc3n2)cc1` [Compound G62, 4-[(3-{[2-(4-methoxyphenyl)-4-quinolyl]amino}phenyl)methyl]-1,4-thiazaperhydroine-1,1-dione] was 5.30 to 6.10. Same read-out and setting: the same measure for `COc1ccc(-c2cc(Nc3cccnc3)c3ccccc3n2)cc1` [Compound G64]: 5.30 to 6.10; for `COc1ccc(-c2cc(Nc3ccncc3)c3ccccc3n2)cc1` [Compound G65, [2-(4-methoxyphenyl)(4-quinolyl)]-4-pyridylamine]: 5.30 to 6.10. The same measure, in the same setting: the value for `COc1ccc(-c2cc(Nc3cncnc3)c3ccccc3n2)cc1` [Compound G66, [2-(4-methoxyphenyl)(4-quinolyl)]pyrimidin-5-ylamine] was 5.30 to 6.10.

For orientation: IC50 means the concentration needed to halve the response being measured. Higher therefore signals a need for much substance. The term pIC50 denotes the negative decadic logarithm of the IC50, by convention in mol/L.
